Laboratory results: patent US9683986B2, “Treatment of cancer by inhibition of the MYD88/ERK MAP kinase interaction” (CENTRE LEON BERARD, priority 2011, dated 2017)

Tested on: HCT116 p53+/+ or p53−/− tumor
Assay: Subcutaneous HCT116 shMyD88 tumors in nude mice, doxycyclin-induced MyD88 extinction
Format: in vivo
Details: HCT116 cells stably expressing doxycyclin-inducible MyD88 shRNA, treated with doxycyclin
Method: Then we generated HCT116 p53+/+ or p53−/− stably expressing a doxycyclin-inducible MyD88 shRNA. These cell lines were subcutaneously implanted in nude mice, then the mice were treated or not with doxycyclin to induce MyD88 extinction in the tumor.

MyD88 shRNA: doxycyclin-inducible MyD88 shRNA stably expressed in HCT116 cells (sense CGGACCCTAAATCCAATAGAAA; antisense TTTCTATTGGATTTAGGGTCCT)
Tumor growth in vivo: blocks tumor growth in vivo
